A short description of data set [1]: 25% v/v mouse serum (Biosharp, BL1053A diluted in 1× PBS). Conditions: 37 °C, up to 48 h.
A short description of data set [2]: Organ fluorescence 2 h post-injection (clearance route). The data set is classed as in vivo, mouse. The settings on record: nude mice, organs isolated 2 h post i.v. injection of 1 nmol. On the procedure:
(§1) Typically, the fluorescence peptides or peptoids were prepared at a dose of 1 nmol (10 µM in 100 µL of 1× PBS buffer) and injected into the tail vein of each mouse 2 h prior to fluorescence imaging with an IVIS Spectrum imager (PerkinElmer Lumina III). For Figure 4, Figures S17 and S18 (Supporting Information) (joint aging and RA) and Figure S27 (Supporting Information), 2 nmol of Cy5‐(NlysO)7 (20 µM in 100 µL of 1× PBS buffer) were i.v. administered to each mouse. For 1‐week‐old neonatal mice, 1 nmol of Cy5‐(NlysO)7 (20 µM in 50 µL of 1× PBS buffer) was intravenously injected into each mouse. All in vivo imaging was performed 2 h post probe injection with the IVIS Spectrum imager (PerkinElmer, fluorescence: ex/em: 620/670 nm, exposure: 1 s, bing: 4, F/Stop: 2; field of view: A/B/C/Z). Mice were anesthesia with 3% isoflurane (RWD, R510‐22‐10) during image acquisition. Hair in the knee areas was removed before fluorescence imaging for mice in Figure 4a and Figure S17 (Supporting Information). The mice were euthanized following the final image acquisition and occasionally imaged again after skin and organ removal. Next, the airways, ankles, ears, paws, knees, tails, spines, and chest ribs were collected, imaged, and saved for subsequent histology analysis. All acquired fluorescence images were analyzed using the Living Image software (PerkinElmer). The fluorescence signal from each specimen was measured by quantifying the average radiation efficiency within the selected oval‐shaped regions‐of‐interest.

Data set [3] is described as follows: Serum stability test (HPLC). The data set is classed as in vitro ADME, mouse. The settings on record: 37 °C; for HPLC chromatogram after 48 h of serum incubation: 25% mouse serum, 48 h vs 10 min; for HPLC chromatogram after 48 h of serum incubation / HPLC peak shape and elution time after 24 h of serum incubation: HPLC 646 nm; for HPLC chromatogram after 48 h of serum incubation / metabolised at 24 h / degradation in serum (in words): n = 3; for metabolised at 24 h: 25% v/v mouse serum in 1× PBS, 10 nmol probe, peak area normalized to 10 min, read-out: percent of the peptides proteolyzed after 24 h of serum incubation; for metabolised at 24 h / degradation in serum (in words): HPLC UV 646 nm; for degradation in serum (in words): 25% v/v mouse serum, 24 h and even after 48 h; for HPLC peak shape and elution time after 24 h of serum incubation: mouse serum. The method, then: Cy5‐labeled peptidomimetic probes (10 nmol) were incubated in 25% v/v mouse serum (Biosharp, BL1053A diluted in 1× PBS) at 37 °C. Aliquots (200 µL) were taken periodically at 0 (deadtime: ≈10 min), 2, 24, and 48 h, and added to 400 µL of 3.75% trichloroacetic acid in acetonitrile at 4 °C. Then, all samples were centrifuged to remove the precipitated serum proteins at 13800 g for 10 min at 4 °C. The supernatant (150 µL) was taken to mix with 550 µL of water (with 0.1% TFA) to centrifuge again at 2630 g for 5 min at 4 °C. Five microliter of the supernatant was mixed with 200 µL of water containing 0.1% TFA as the final samples for HPLC analysis at room temperature monitored by absorbance at 646 nm with the integral area of the intact fraction recorded. The peak area for the 10 min time point was designated as 100% intact, and each peak area at successive time points was normalized to the 10 min peak to calculate the percent compound remaining. All the experiments were repeated three times.

Another data set has as its system cartilage. Kind of data set: In vivo and ex vivo fluorescence imaging of cartilage uptake and retention in nude mice. Set-up: species or system mouse. Conditions: 1 nmol i.v., 0-96 h.
Text: All procedures for mouse maintenance and experiments strictly followed the policy of the Experimental Animal Ethics Committee of the Fifth Affiliated Hospital of Sun Yat‐sen University (protocol numbers: 00361, 00436). Balb/c nu mice (male, 10‐18 weeks old) were used for the general in vivo imaging experiments (Figure 3c–f; Figures S10–S14, Supporting Information). For Figure 3g,h and Figure S16 (Supporting Information), neonatal Balb/c mice (7 days old) were used. Female Balb/c mice (74 weeks old versus 12 weeks old) were used in the aged joint imaging experiment reported in Figure 4a–c and Figure S17 (Supporting Information). The RA model was made using female Balb/c mice (6‐8 weeks old) by intraperitoneal injection of an anti‐collagen antibody cocktail (1.5 mg per mouse; Chondrex, 53100) followed by selective subcutaneous injection of lipopolysaccharide (LPS, 12.5 µg per mouse, Chondrex, 53100) into the left hind paw three days later.^[ [30] ^] C57BL/6J mice (male, 6–8 weeks old) were used for the biocompatibility tests (Figures S23–S25, Supporting Information).
as §1
For the cartilage retention experiments (Figures S11 and S12, Supporting Information), Cy5‐(NlysO)7 (10 µM in 100 µL of 1× PBS buffer) was administered via tail vein to four male Balb/c nu mice (10 weeks old) at 2, 24, 48, and 96 h respectively, prior to fluorescence imaging using an IVIS Spectrum imaging system (ex/em: 620/670 nm, exposure: 1 s, bing: 4, F/Stop: 2). Following euthanasia, their cartilaginous tissues were harvested and imaged. The fluorescence images were analyzed and quantified as described above.

Data set [4] in a line: Routine (whole) blood tests after repeated dosing. The data set is classed as in vivo, mouse. The settings on record: C57BL/6J mice, 3 weekly i.v. doses of 2 nmol over 14 days, n = 5. The method, then:
Whole blood tests: Each C57BL/6J mouse (6–8 weeks old) was intravenously injected with 100 µL of PBS buffer or with each peptide or peptoid probe (2 nmol in 100 µL 1× PBS buffer per mouse) on days 0, 7, and 14. The mice were sacrificed on day 15, 24 h after the final injection. The heart, liver, spleen, lungs, and kidneys were collected from each mouse and processed into formalin‐fixed paraffin‐embedded sections for histological evaluation with H&E staining. Whole blood was collected. Both H&E and blood sample analyses were performed by Wuhan Servicebio.

Square brackets hold non-standard residues; d marks the D form. Peptide text beside a SMILES is read from it. * marks the point of attachment. X1 = CN1/C(=C/C=C/C=C/C2=[N+](CCCCCC(=O)*)c3ccc(S(=O)(=O)[O-])cc3C2(C)C)C(C)(C)c2cc(S(=O)(=O)O)ccc21; Hyp = O=C(O)[C@@H]1C[C@@H](O)CN1; Nlys = NCCCCNCC(=O)O; Ahx = NCCCCCC(=O)O

With Cy5‐(NlysO)7, the “serum stability (degradation in mouse serum)” value (“serum stability” for short) in data set [1] was “hardly degraded in the serum even after 48 h”.

For Cy5‐(GNlysO)7, the “serum stability” value in data set [1] was “hardly degraded in the serum even after 48 h”.

Take `CN1/C(=C/C=C/C=C/C2=[N+](CCCCCC(=O)NCCCCCC(=O)NCC(=O)N[C@@H](CCCCN)C(=O)N3C[C@H](O)C[C@H]3C(=O)NCC(=O)N[C@@H](CCCCN)C(=O)N3C[C@H](O)C[C@H]3C(=O)NCC(=O)N[C@@H](CCCCN)C(=O)N3C[C@H](O)C[C@H]3C(=O)NCC(=O)N[C@@H](CCCCN)C(=O)N3C[C@H](O)C[C@H]3C(=O)NCC(=O)N[C@@H](CCCCN)C(=O)N3C[C@H](O)C[C@H]3C(=O)NCC(=O)N[C@@H](CCCCN)C(=O)N3C[C@H](O)C[C@H]3C(=O)NCC(=O)N[C@@H](CCCCN)C(=O)N3C[C@H](O)C[C@H]3C(N)=O)c3ccc(S(=O)(=O)[O-])cc3C2(C)C)C(C)(C)c2cc(S(=O)(=O)O)ccc21` [Cy5‐(GKO)7] ({X1-Ahx}-GK[Hyp]GK[Hyp]GK[Hyp]GK[Hyp]GK[Hyp]GK[Hyp]GK[Hyp]-NH2): in data set [2], the “clearance route from organ fluorescence” value is listed as “might be mainly cleared through kidneys”. Further, in data set [3], the “HPLC chromatogram after 48 h of serum incubation” value is on record as “showed prominent peaks from peptide proteolysis” and the metabolised at 24 h was about 25%.

In the case of `CN1/C(=C/C=C/C=C/C2=[N+](CCCCCC(=O)NCCCCCC(=O)NCC(=O)N3C[C@H](O)C[C@H]3C(=O)NCC(=O)N3C[C@H](O)C[C@H]3C(=O)NCC(=O)N3C[C@H](O)C[C@H]3C(=O)NCC(=O)N3C[C@H](O)C[C@H]3C(=O)NCC(=O)N3C[C@H](O)C[C@H]3C(=O)NCC(=O)N3C[C@H](O)C[C@H]3C(=O)NCC(=O)N3C[C@H](O)C[C@H]3C(N)=O)c3ccc(S(=O)(=O)[O-])cc3C2(C)C)C(C)(C)c2cc(S(=O)(=O)O)ccc21` [Cy5‐(GO)7] ({X1-Ahx}-G[Hyp]G[Hyp]G[Hyp]G[Hyp]G[Hyp]G[Hyp]G[Hyp]-NH2), in data set [3], the “HPLC chromatogram after 48 h of serum incubation” value is given as “showed prominent peaks from peptide proteolysis” and the metabolised at 24 h is about 25%.

For Cy5‐(GNlys)7, in data set [1], the “serum stability” value was “hardly degraded in the serum even after 48 h”.

On to `CN1/C(=C/C=C/C=C/C2=[N+](CCCCCC(=O)NCCCCCC(=O)NCC(=O)N(CCCCN)CC(=O)NCC(=O)N(CCCCN)CC(=O)NCC(=O)N(CCCCN)CC(=O)NCC(=O)N(CCCCN)CC(=O)NCC(=O)N(CCCCN)CC(=O)NCC(=O)N(CCCCN)CC(=O)NCC(=O)N(CCCCN)CC(N)=O)c3ccc(S(=O)(=O)[O-])cc3C2(C)C)C(C)(C)c2cc(S(=O)(=O)O)ccc21` [Cy5‐(GNlys)7] ({X1-Ahx}-G[Nlys]G[Nlys]G[Nlys]G[Nlys]G[Nlys]G[Nlys]G[Nlys]-NH2), for which the “clearance route from organ fluorescence” value in data set [2] is “may be cleared by the ki dneys and liver”. For the same compound, the “in vivo retention in joints and ribs compared to peptide sequences Cy5-(GKO)7 and Cy5-R8” value in the data set on cartilage was “stronger retention in the joints and ribs in vivo”. Besides, the “routine blood analyses vs PBS control group” value in data set [4] is given as “None of the measurements”. Also, in data set [3], the “degradation in serum (in words)” value is recorded as “hardly degraded”; the “HPLC peak shape and elution time after 24 h of serum incubation” value (“HPLC peak shape and elution time” below) was “No significant changes in peak shape and elusion time were noted”.

For Cy5‐Nlys7, in data set [1], the “serum stability” value is “No significant changes in peak shape and elution time even post 48 h”.

Turning to `CN1/C(=C/C=C/C=C/C2=[N+](CCCCCC(=O)NCCCCCC(=O)NCC(=O)N(CCCCN)CC(=O)N3C[C@H](O)C[C@H]3C(=O)NCC(=O)N(CCCCN)CC(=O)N3C[C@H](O)C[C@H]3C(=O)NCC(=O)N(CCCCN)CC(=O)N3C[C@H](O)C[C@H]3C(=O)NCC(=O)N(CCCCN)CC(=O)N3C[C@H](O)C[C@H]3C(=O)NCC(=O)N(CCCCN)CC(=O)N3C[C@H](O)C[C@H]3C(=O)NCC(=O)N(CCCCN)CC(=O)N3C[C@H](O)C[C@H]3C(=O)NCC(=O)N(CCCCN)CC(=O)N3C[C@H](O)C[C@H]3C(N)=O)c3ccc(S(=O)(=O)[O-])cc3C2(C)C)C(C)(C)c2cc(S(=O)(=O)O)ccc21` [Cy5‐(GNlysO)7] ({X1-Ahx}-G[Nlys][Hyp]G[Nlys][Hyp]G[Nlys][Hyp]G[Nlys][Hyp]G[Nlys][Hyp]G[Nlys][Hyp]G[Nlys][Hyp]-NH2), in data set [2], the “clearance route from organ fluorescence” value is “might be mainly cleared through kidneys”. In addition, the “in vivo retention in joints and ribs compared to peptide sequences Cy5-(GKO)7 and Cy5-R8” value in the data set on cartilage was “stronger retention in the joints and ribs in vivo”. The “routine blood analyses vs PBS control group” value in data set [4] is reported as “None of the measurements”. Moreover, in data set [3], the “degradation in serum (in words)” value was “hardly degraded”; the “HPLC peak shape and elution time” value is “No significant changes in peak shape and elusion time were noted”.

On to `CN1/C(=C/C=C/C=C/C2=[N+](CCCCCC(=O)NCCCCCC(=O)N(CCCCN)CC(=O)N(CCCCN)CC(=O)N(CCCCN)CC(=O)N(CCCCN)CC(=O)N(CCCCN)CC(=O)N(CCCCN)CC(=O)N(CCCCN)CC(N)=O)c3ccc(S(=O)(=O)[O-])cc3C2(C)C)C(C)(C)c2cc(S(=O)(=O)O)ccc21` [Cy5‐Nlys7] ({X1-Ahx}-[Nlys][Nlys][Nlys][Nlys][Nlys][Nlys][Nlys]-NH2), for which the “clearance route from organ fluorescence” value in data set [2] was “may be cleared by the ki dneys and liver”. Besides, the “in vivo retention in joints and ribs compared to peptide sequences Cy5-(GKO)7 and Cy5-R8” value in the data set with cartilage was “stronger retention in the joints and ribs in vivo”. The “routine blood analyses vs PBS control group” value in data set [4] is on record as “None of the measurements”. In addition, in data set [3], the “HPLC peak shape and elution time” value is “No significant changes in peak shape and elusion time were noted”.

The values are drawn from paper PMC12631873 (Advanced Science, 2025).
